Drawing on the NIST ThermoML archive (doi:10.1016/j.jct.2006.06.009), this text covers mass density and viscosity for 16 molecules.

The conditions of series [1]: 308.15 K; 101 kPa; Liquid.
Series [2] can be described thus: xn = mol fraction of the nth substance listed. The following applies: 308.15 K, 101 kPa, Liquid.

± gives the expanded uncertainty stated by the source.

For `ClC(Cl)C(Cl)Cl` [1,1,2,2-tetrachloroethane], in series [1], the mass density (usually the mass of a sample divided by its volume) stood at 1572.4 ± 2.9 kg/m3 and the viscosity – broadly, the resistance of a fluid to flow – is given as 1.334 ± 0.033 mPa·s.

Regarding `ClC(Cl)C(Cl)Cl` [1,1,2,2-tetrachloroethane] + CNC(C)=O, in series [2] (x2 = 0), the mass density came out at 1572.4 ± 2.9 kg/m3 and the viscosity came to 1.334 ± 0.033 mPa·s.

As for `ClCC(Cl)Cl` [1,1,2-trichloroethane], in series [1], the mass density amounted to 1416.1 ± 3.2 kg/m3 and the viscosity was 0.903 ± 0.017 mPa·s.

Regarding `ClCC(Cl)Cl` [1,1,2-trichloroethane] + CNC(C)=O, the mass density in series [2] (x2 = 0) turned out to be 1416.1 ± 3.2 kg/m3; in series [2] (x2 = 0.0706), 1390.4 ± 3 kg/m3; in series [2] (x2 = 0.2356), 1324.2 ± 2.6 kg/m3; in series [2] (x2 = 0.3484), 1276 ± 2.3 kg/m3; in series [2] (x2 = 0.452), 1229.9 ± 2.1 kg/m3; in series [2] (x2 = 0.5461), 1186.3 ± 1.9 kg/m3. For the same molecule, the mass density in series [2] (x2 = 0.643) stood at 1139.1 ± 1.7 kg/m3; in series [2] (x2 = 0.7345), 1092.7 ± 1.6 kg/m3; in series [2] (x2 = 0.8235), 1045.8 ± 1.4 kg/m3; in series [2] (x2 = 0.9497) it was 975.3 ± 1.3 kg/m3. Also, the viscosity in series [2] (x2 = 0) came out at 0.903 ± 0.017 mPa·s; in series [2] (x2 = 0.0706), 1.003 ± 0.018 mPa·s; in series [2] (x2 = 0.2356), 1.365 ± 0.022 mPa·s; in series [2] (x2 = 0.3484), 1.771 ± 0.026 mPa·s; in series [2] (x2 = 0.452), 2.18 ± 0.03 mPa·s; in series [2] (x2 = 0.5461) it was 2.537 ± 0.034 mPa·s. Besides, the viscosity in series [2] (x2 = 0.643) is 2.88 ± 0.038 mPa·s; in series [2] (x2 = 0.7345), 3.105 ± 0.04 mPa·s; in series [2] (x2 = 0.8235), 3.249 ± 0.041 mPa·s; in series [2] (x2 = 0.9497), 3.345 ± 0.041 mPa·s.

In the case of `ClCCCl` [1,2-dichloroethane], in series [1], the mass density turned out to be 1230.8 ± 1.7 kg/m3 and the viscosity came out at 0.646 ± 0.013 mPa·s.

In the case of `ClCCCl` [1,2-dichloroethane] + CNC(C)=O, in series [2] (x2 = 0), the mass density is given as 1230.8 ± 1.7 kg/m3 and the viscosity was determined as 0.646 ± 0.013 mPa·s.

`CNC(C)=O` [N-methylacetamide]: in series [1], the mass density stood at 945.9 ± 1.2 kg/m3 and the viscosity stood at 3.312 ± 0.04 mPa·s.

With `CNC(C)=O` [N-methylacetamide] + ClC(Cl)=C(Cl)Cl, the mass density amounted to 1573.5 ± 2.3 kg/m3 in series [2] (x1 = 0.0571); 1463.9 ± 2.1 kg/m3 in series [2] (x1 = 0.2569); 1396.5 ± 2 kg/m3 in series [2] (x1 = 0.3691); 1330.8 ± 1.8 kg/m3 in series [2] (x1 = 0.4749); 1268.3 ± 1.7 kg/m3 in series [2] (x1 = 0.5719); 1206.2 ± 1.6 kg/m3 in series [2] (x1 = 0.6637). For the same molecule, the mass density was determined as 1178 ± 1.6 kg/m3 in series [2] (x1 = 0.7039), 1078.2 ± 1.4 kg/m3 in series [2] (x1 = 0.8385), 974.6 ± 1.2 kg/m3 in series [2] (x1 = 0.9666) and 945.9 ± 1.2 kg/m3 in series [2] (x1 = 1). For the same molecule, the viscosity amounted to 0.801 ± 0.014 mPa·s in series [2] (x1 = 0.0571); 1.541 ± 0.021 mPa·s in series [2] (x1 = 0.2569); 1.895 ± 0.024 mPa·s in series [2] (x1 = 0.3691); 2.195 ± 0.027 mPa·s in series [2] (x1 = 0.4749); 2.411 ± 0.03 mPa·s in series [2] (x1 = 0.5719); 2.61 ± 0.032 mPa·s in series [2] (x1 = 0.6637). Also, the viscosity came out at 2.696 ± 0.033 mPa·s in series [2] (x1 = 0.7039), 2.981 ± 0.037 mPa·s in series [2] (x1 = 0.8385), 3.245 ± 0.04 mPa·s in series [2] (x1 = 0.9666) and 3.312 ± 0.04 mPa·s in series [2] (x1 = 1).

For `CNC(C)=O` [N-methylacetamide] + ClC(Cl)C(Cl)Cl, the mass density in series [2] (x1 = 0.0621) is 1545.5 ± 2.8 kg/m3; in series [2] (x1 = 0.2627), 1450.5 ± 2.4 kg/m3; in series [2] (x1 = 0.3728) it was 1393 ± 2.2 kg/m3; in series [2] (x1 = 0.4796), 1331.6 ± 2 kg/m3; in series [2] (x1 = 0.5797), 1268.9 ± 1.9 kg/m3; in series [2] (x1 = 0.6722), 1206.5 ± 1.7 kg/m3. The mass density stood at 1143.7 ± 1.6 kg/m3 in series [2] (x1 = 0.7594), 1080.7 ± 1.5 kg/m3 in series [2] (x1 = 0.8413), 974.8 ± 1.2 kg/m3 in series [2] (x1 = 0.9679) and 945.9 ± 1.2 kg/m3 in series [2] (x1 = 1). Besides, the viscosity in series [2] (x1 = 0.0621) stood at 1.499 ± 0.037 mPa·s; in series [2] (x1 = 0.2627), 2.226 ± 0.053 mPa·s; in series [2] (x1 = 0.3728), 2.726 ± 0.064 mPa·s; in series [2] (x1 = 0.4796), 3.398 ± 0.078 mPa·s; in series [2] (x1 = 0.5797) it was 3.936 ± 0.09 mPa·s; in series [2] (x1 = 0.6722), 4.291 ± 0.097 mPa·s. In addition, the viscosity worked out at 4.404 ± 0.099 mPa·s in series [2] (x1 = 0.7594), 4.036 ± 0.091 mPa·s in series [2] (x1 = 0.8413), 3.533 ± 0.08 mPa·s in series [2] (x1 = 0.9679) and 3.312 ± 0.075 mPa·s in series [2] (x1 = 1).

As to `CNC(C)=O` [N-methylacetamide] + ClC=C(Cl)Cl, the mass density came to 1417.9 ± 2 kg/m3 in series [2] (x1 = 0.0514); 1340.4 ± 1.9 kg/m3 in series [2] (x1 = 0.2353); 1293.3 ± 1.8 kg/m3 in series [2] (x1 = 0.3404); 1244.6 ± 1.7 kg/m3 in series [2] (x1 = 0.4437); 1196.4 ± 1.6 kg/m3 in series [2] (x1 = 0.5419); 1148.5 ± 1.5 kg/m3 in series [2] (x1 = 0.6357). In addition, the mass density in series [2] (x1 = 0.7288) is 1099.4 ± 1.4 kg/m3; in series [2] (x1 = 0.8196), 1049.9 ± 1.4 kg/m3; in series [2] (x1 = 0.9692), 964.4 ± 1.2 kg/m3; in series [2] (x1 = 1) it was 945.9 ± 1.2 kg/m3. In addition, the viscosity is recorded as 0.564 ± 0.013 mPa·s in series [2] (x1 = 0.0514); 1.015 ± 0.016 mPa·s in series [2] (x1 = 0.2353); 1.291 ± 0.018 mPa·s in series [2] (x1 = 0.3404); 1.578 ± 0.021 mPa·s in series [2] (x1 = 0.4437); 1.856 ± 0.024 mPa·s in series [2] (x1 = 0.5419); 2.15 ± 0.027 mPa·s in series [2] (x1 = 0.6357). Further, the viscosity was determined as 2.45 ± 0.03 mPa·s in series [2] (x1 = 0.7288), 2.74 ± 0.034 mPa·s in series [2] (x1 = 0.8196), 3.215 ± 0.039 mPa·s in series [2] (x1 = 0.9692) and 3.312 ± 0.04 mPa·s in series [2] (x1 = 1).

`CNC(C)=O` [N-methylacetamide] + ClCC(Cl)Cl: in series [2] (x1 = 1), the mass density was found to be 945.9 ± 1.2 kg/m3 and the viscosity is on record as 3.312 ± 0.04 mPa·s.

Regarding `CNC(C)=O` [N-methylacetamide] + ClCCCl, the mass density stood at 1213.8 ± 1.6 kg/m3 in series [2] (x1 = 0.063); 1194.7 ± 1.6 kg/m3 in series [2] (x1 = 0.134); 1159.1 ± 1.5 kg/m3 in series [2] (x1 = 0.2632); 1124.3 ± 1.5 kg/m3 in series [2] (x1 = 0.3875); 1108.2 ± 1.4 kg/m3 in series [2] (x1 = 0.4442); 1090.5 ± 1.4 kg/m3 in series [2] (x1 = 0.5064). Moreover, the mass density stood at 1038.5 ± 1.3 kg/m3 in series [2] (x1 = 0.6863), 1003.1 ± 1.3 kg/m3 in series [2] (x1 = 0.807), 966.5 ± 1.2 kg/m3 in series [2] (x1 = 0.931) and 945.9 ± 1.2 kg/m3 in series [2] (x1 = 1). Also, the viscosity in series [2] (x1 = 0.063) amounted to 0.705 ± 0.014 mPa·s; in series [2] (x1 = 0.134) it was 0.785 ± 0.014 mPa·s; in series [2] (x1 = 0.2632), 1.024 ± 0.016 mPa·s; in series [2] (x1 = 0.3875), 1.342 ± 0.019 mPa·s; in series [2] (x1 = 0.4442) it was 1.5 ± 0.02 mPa·s; in series [2] (x1 = 0.5064) it was 1.694 ± 0.022 mPa·s. For the same molecule, the viscosity in series [2] (x1 = 0.6863) was 2.245 ± 0.028 mPa·s; in series [2] (x1 = 0.807), 2.651 ± 0.033 mPa·s; in series [2] (x1 = 0.931), 3.083 ± 0.038 mPa·s; in series [2] (x1 = 1), 3.312 ± 0.04 mPa·s.

For `ClC(Cl)=C(Cl)Cl` [tetrachloroethene], in series [1], the mass density turned out to be 1599.2 ± 2.3 kg/m3 and the viscosity worked out at 0.723 ± 0.014 mPa·s.

On to `ClC(Cl)=C(Cl)Cl` [tetrachloroethene] + CNC(C)=O, for which, in series [2] (x2 = 0), the mass density amounted to 1599.2 ± 2.3 kg/m3 and the viscosity was found to be 0.723 ± 0.014 mPa·s.

Consider `ClC=C(Cl)Cl` [trichloroethene], for which, in series [1], the mass density worked out at 1438.5 ± 2 kg/m3 and the viscosity is recorded as 0.46 ± 0.012 mPa·s.

For `ClC=C(Cl)Cl` [trichloroethene] + CNC(C)=O, in series [2] (x2 = 0), the mass density stood at 1438.5 ± 2 kg/m3 and the viscosity stood at 0.46 ± 0.012 mPa·s.
